Experimental findings from patent US20240368120A1 (Terns Pharmaceuticals, Inc., priority 2023, published 2024) are described below.

Series [1] in a line: Rat pharmacokinetics, oral dosing. The series is classed as in vivo, Sprague-Dawley rats. The following applies: male, Sprague-Dawley, oral dosing at 3 mg/kg, plasma; for half-life: read-out: Rat T1/2. As to the method: Intravenous dosing: Compounds were formulated at 1.0 mg/mL in a solution comprising 5% polyethylene glycol 400 and 95% (12% (w/v) sulfobutyl-β-cyclodextrin in water) (v/v). Formulated compounds were sterile filtered through a 0.22 micron filter before dosing. Compounds were administered to male, 7-11-week-old Sprague-Dawley rats by jugular vein cannula infusion over 30 minutes at a dose of 1 mg/kg. Oral dosing: Compounds were formulated at 1.0 mg/mL in a solution comprising 5% polyethylene glycol 400 and 95% (12% (w/v) sulfobutyl-β-cyclodextrin in water) (v/v). Formulated compounds were administered to male, 7-11 week old Sprague-Dawley rats by oral gavage at a dose of 10 mg/kg or 3 mg/kg.
Sample collection: Blood collections of about 0.2 mL per time point were performed from jugular vein or other suitable site of each animal, into pre-chilled commercial EDTA-K2 tubes and placed on wet ice until centrifugation. Blood samples were processed for plasma by centrifugation at approximately 4° C., 3,200 g for 10 min. Plasma was collected and transferred into pre-labeled 96 well plate or polypropylene tubes, quick frozen over dry ice and kept at −60° C. or lower until
Data analysis: Plasma concentration versus time data was plotted in graph and analyzed by non-compartmental approaches using the Phoenix WinNonlin 6.3 software program. Related PK parameters were calculated according to dosing route, e.g., CL, Vdss and C0 for intravenous administration, Cmax, Tmax or % F for extravascular administration, and T1/2, AUC(0-t), AUC(0-inf), MRT(0-t), MRT(0-inf) for all routes.

For a further series, the target named is T1, human GLP-1R receptor (Homo sapiens, UniProt P43220).
T1 construct: expressed in transfected cells
T1 sequence (P43220 24-463): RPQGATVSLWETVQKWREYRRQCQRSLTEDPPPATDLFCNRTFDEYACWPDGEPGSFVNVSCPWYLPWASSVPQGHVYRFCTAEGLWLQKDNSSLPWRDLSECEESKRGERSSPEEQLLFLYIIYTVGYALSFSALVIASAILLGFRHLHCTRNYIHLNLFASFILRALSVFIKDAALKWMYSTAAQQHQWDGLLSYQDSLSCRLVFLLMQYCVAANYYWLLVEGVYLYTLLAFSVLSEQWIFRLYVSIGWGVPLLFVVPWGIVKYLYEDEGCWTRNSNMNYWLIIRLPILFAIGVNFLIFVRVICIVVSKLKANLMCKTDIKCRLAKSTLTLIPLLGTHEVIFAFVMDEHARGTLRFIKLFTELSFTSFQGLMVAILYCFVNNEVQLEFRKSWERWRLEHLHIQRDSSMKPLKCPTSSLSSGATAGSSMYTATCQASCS
Nature of the series: GLP-1R low expression cell assay (cAMP TR-FRET, CHO-K1_hGLP-1Rlow_clone10 cells). The series is classed as cell-based. The following applies: for EC50: cAMP TR-FRET, 30 min at 25° C.; for Emax: maximum activation relative to control GLP-1 peptide agonist. The procedure, abridged: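 Readout is cAMP TR-FRET after 30 min compound stimulation at 25 °C of a low-GLP-1R-expressing CHO-K1 clone (1,000 cells/well), with 10-point 3-fold serial dilutions. Percent activation versus a control GLP-1 peptide, from duplicates, was Hill-fitted to give EC50.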
Background: TR-FRET usually uses a lanthanide donor and a delayed reading to cut background.

Molecules are shown by their SMILES.

The AUC is the area under the concentration-time curve, a measure of exposure. High values mean more exposure, low ones less exposure. One may read the Cmax as the peak of the concentration-time curve. The term bioavailability denotes dose-corrected exposure relative to a reference, in per cent. A low value points to poor availability. In general, EC50 refers to the concentration that produces a half-maximal response. A lower EC50 goes with higher potency in that assay. Usually Emax stands for the maximal effect, on the per cent scale that the assay sets.

For `COc1cc(C(=O)O)cc2c1nc(N(C)[C@H]1CC[C@H](c3cccc4c3O[C@@](C)(c3ccc(Cl)cn3)O4)CC1)n2C[C@@H]1CCO1` [Compound 80, 2-(((1S,4S)-4-((S)-2-(5-Chloropyridin-2-yl)-2-methylbenzo[d][1,3]dioxol-4-yl)cyclohexyl)(methyl)amino)-4-methoxy-1-(((S)-oxetan-2-yl)methyl)-1H-benzo[d]imidazole-6-carboxylic acid], in series [1], the AUC was less than 500 ng·h/mL, the Cmax was less than 500 ng/mL, the half-life was not below 2.5 h and the bioavailability was less than 25%. On human GLP-1R receptor, the EC50 was less than 10 nM and the maximum response (Emax) is more than 85%.
`COc1cc(C(=O)O)cc2c1nc(CN1CC[C@@H](c3cccc4c3O[C@@](C)(c3ccc(Cl)cn3)O4)[C@@H]3C[C@@H]31)n2C[C@@H]1CCO1` [Compound 89, 2-(((1S,5R,6S)-5-((S)-2-(5-Chloropyridin-2-yl)-2-methylbenzo[d][1,3]dioxol-4-yl)-2-azabicyclo[4.1.0]heptan-2-yl)methyl)-4-methoxy-1-(((S)-oxetan-2-yl)methyl)-1H-benzo[d]imidazole-6-carboxylic acid]: in series [1], the AUC was less than 500 ng·h/mL, the Cmax is less than 500 ng/mL, the half-life fell in the range of 1.5 to 2.5 h and the bioavailability fell in the range of 25 to 50%. On human GLP-1R receptor, this compound came in with an EC50 of less than 10 nM and an Emax of more than 85%.
On to `Cn1c(CN2CCC(c3cccc4c3O[C@@](C)(c3ccc(Cl)cn3)O4)CC2)nc2c(OC(F)F)cc(C(=O)O)cc21` [Compound 83, (S)-2-((4-(2-(5-Chloropyridin-2-yl)-2-methylbenzo[d][1,3]dioxol-4-yl)piperidin-1-yl)methyl)-4-(difluoromethoxy)-1-methyl-1H-benzo[d]imidazole-6-carboxylic acid], for which, in series [1], the AUC was 2500 to 10000 ng·h/mL, the Cmax was 2000 to 5000 ng/mL, the half-life is not below 2.5 h and the bioavailability is more than 85%. At human GLP-1R receptor, this compound registered a half-maximal effective concentration (EC50) of less than 10 nM and an Emax of more than 85%.
In the case of `C[C@]1(c2ccc(Cl)cn2)Oc2cccc(C3CCN(Cc4nc5c(OCCF)cc(C(=O)O)cc5n4C[C@@H]4CCO4)CC3)c2O1` [Compound 81, 2-((4-((S)-2-(5-Chloropyridin-2-yl)-2-methylbenzo[d][1,3]dioxol-4-yl)piperidin-1-yl)methyl)-4-(2-fluoroethoxy)-1-(((S)-oxetan-2-yl)methyl)-1H-benzo[d]imidazole-6-carboxylic acid], in series [1], the AUC is less than 500 ng·h/mL, the Cmax was less than 500 ng/mL, the half-life was not below 2.5 h and the bioavailability is less than 25%. At human GLP-1R receptor, the EC50 was less than 10 nM and the Emax is more than 85%.
Turning to `Cn1c(CN2CCC(c3cccc(OCc4ccc(Cl)cc4F)n3)CC2)nc2c(OCF)cc(C(=O)O)cc21` [Compound 225, 2-((4-(6-((4-Chloro-2-fluorobenzyl)oxy)pyridin-2-yl)piperidin-1-yl)methyl)-4-(fluoromethoxy)-1-methyl-1H-benzo[d]imidazole-6-carboxylic acid], in series [1], the Cmax lay within 2000 to 5000 ng/mL, the half-life was not below 2.5 h and the bioavailability was more than 85%. Moreover, at human GLP-1R receptor, the EC50 was less than 10 nM and the Emax was more than 85%.
On to `Cn1c(CN2CCC(c3cccc4c3O[C@@H](c3ccc(Cl)cc3F)CO4)CC2)nc2c(OCCF)cc(C(=O)O)cc21` [Compound 299, (S)-2-((4-(3-(4-chloro-2-fluorophenyl)-2,3-dihydrobenzo[b][1,4]dioxin-5-yl)piperidin-1-yl)methyl)-4-(2-fluoroethoxy)-1-methyl-1H-benzo[d]imidazole-6-carboxylic acid], for which, in series [1], the AUC lay within 500 to 2500 ng·h/mL, the Cmax is less than 500 ng/mL, the half-life was 1.5 to 2.5 h and the bioavailability lay within 50 to 85%. In addition, on human GLP-1R receptor, the EC50 was less than 10 nM and the Emax was more than 85%.
As for `C[C@]1(c2ccc(Cl)cn2)Oc2cccc(C3CCN(Cc4nc5c(OC(F)F)cc(C(=O)O)cc5n4C[C@@H]4CCO4)CC3)c2O1` [Compound 78, 2-((4-((S)-2-(5-Chloropyridin-2-yl)-2-methylbenzo[d][1,3]dioxol-4-yl)piperidin-1-yl)methyl)-4-(difluoromethoxy)-1-(((S)-oxetan-2-yl)methyl)-1H-benzo[d]imidazole-6-carboxylic acid], in series [1], the exposure (AUC) is less than 500 ng·h/mL, the Cmax was less than 500 ng/mL, the half-life was in the range of 1.5 to 2.5 h and the bioavailability lay in the range of 25 to 50%. For the same compound, on human GLP-1R receptor, the EC50 is less than 10 nM and the Emax is more than 85%.
Consider `COc1cc(C(=O)O)cc2c1nc(CN1CCC(c3cccc(OCc4ccc(C(F)F)cc4F)n3)CC1)n2C` [Compound 305, 2-((4-(6-((4-(Difluoromethyl)-2-fluorobenzyl)oxy)pyridin-2-yl)piperidin-1-yl)methyl)-4-methoxy-1-methyl-1H-benzo[d]imidazole-6-carboxylic acid], for which, in series [1], the AUC was 2500 to 10000 ng·h/mL, the Cmax lay in the range of 2000 to 5000 ng/mL, the half-life was in the range of 1.5 to 2.5 h and the bioavailability was 50 to 85%. On human GLP-1R receptor, this compound returned an EC50 of 10 to 100 nM and an Emax of more than 85%.
On to `COc1cc(C(=O)O)cc2c1nc(CN1CCC(c3cccc(OCc4ccc(Cl)cc4F)n3)CC1)n2C` [Compound 249, 2-((4-(6-((4-Chloro-2-fluorobenzyl)oxy)pyridin-2-yl)piperidin-1-yl)methyl)-4-methoxy-1-methyl-1H-benzo[d]imidazole-6-carboxylic acid], for which, in series [1], the Cmax is more than 5000 ng/mL, the half-life lay within 1.5 to 2.5 h and the bioavailability is more than 85%. Further, on human GLP-1R receptor, the 50% effective concentration (EC50) is less than 10 nM and the Emax was more than 85%.
In the case of `COc1cc(C(=O)O)c(F)c2c1nc(CN1CCC(c3cccc(OCc4ccc(C#N)cc4F)n3)CC1)n2C` [Compound 303, 2-((4-(6-((4-Cyano-2-fluorobenzyl)oxy)pyridin-2-yl)piperidin-1-yl)methyl)-7-fluoro-4-methoxy-1-methyl-1H-benzo[d]imidazole-6-carboxylic acid], in series [1], the AUC was 500 to 2500 ng·h/mL, the Cmax lay within 500 to 1000 ng/mL, the half-life is not below 2.5 h and the bioavailability is less than 25%. Also, at human GLP-1R receptor, the EC50 fell in the range of 10 to 100 nM and the Emax was more than 85%.
For the compound `[2H]C([2H])(C)Oc1cc(C(=O)O)cc2c1nc(CN1CCC(c3cccc(OCc4ccc(C#N)cc4F)n3)CC1)n2C` [Compound 295, 2-((4-(6-((4-Cyano-2-fluorobenzyl)oxy)pyridin-2-yl)piperidin-1-yl)methyl)-4-(ethoxy-1,1-d2)-1-methyl-1H-benzo[d]imidazole-6-carboxylic acid], in series [1], the AUC was in the range of 500 to 2500 ng·h/mL, the Cmax lay in the range of 500 to 1000 ng/mL, the half-life was 1.5 to 2.5 h and the bioavailability is 25 to 50%. On human GLP-1R receptor, the EC50 was less than 10 nM and the Emax is more than 85%.
For the compound `[2H]C([2H])(C)Oc1cc(C(=O)O)cc2c1nc(CN1CCC(c3cccc(OCc4ccc(Cl)cc4F)n3)CC1)n2C` [Compound 296, 2-((4-(6-((4-Chloro-2-fluorobenzyl)oxy)pyridin-2-yl)piperidin-1-yl)methyl)-4-(ethoxy-1,1-d2)-1-methyl-1H-benzo[d]imidazole-6-carboxylic acid], in series [1], the AUC was 2500 to 10000 ng·h/mL, the Cmax was 2000 to 5000 ng/mL, the half-life lay within 1.5 to 2.5 h and the bioavailability was 25 to 50%. Further, on human GLP-1R receptor, the EC50 is less than 10 nM and the Emax is more than 85%.
Turning to `COc1cc(C(=O)O)cc2c1nc(Cc1cc(F)c(-c3cccc(OCc4ccc(C#N)cc4F)n3)cc1F)n2C` [Compound 304, 2-(4-(6-((4-Cyano-2-fluorobenzyl)oxy)pyridin-2-yl)-2,5-difluorobenzyl)-4-methoxy-1-methyl-1H-benzo[d]imidazole-6-carboxylic acid], in series [1], the AUC was 2500 to 10000 ng·h/mL, the Cmax is 2000 to 5000 ng/mL, the half-life lay within 1.5 to 2.5 h and the bioavailability is 50 to 85%. Further, on human GLP-1R receptor, the EC50 was less than 10 nM and the maximal response (Emax) is more than 85%.
For the compound `C[C@]1(c2ccc(Cl)cn2)Oc2cccc(C3CCN(Cc4nc5c(O)cc(C(=O)O)cc5n4Cc4cncs4)CC3)c2O1` [Compound 90, (S)-2-((4-(2-(5-chloropyridin-2-yl)-2-methylbenzo[d][1,3]dioxol-4-yl)piperidin-1-yl)methyl)-4-hydroxy-1-(thiazol-5-ylmethyl)-1H-benzo[d]imidazole-6-carboxylic acid], in series [1], the AUC was less than 500 ng·h/mL, the Cmax was less than 500 ng/mL, the half-life fell in the range of 1.5 to 2.5 h and the bioavailability was less than 25%. For the same compound, at human GLP-1R receptor, the EC50 was less than 10 nM and the Emax was more than 85%.
